Assays:
[1] = human gut metagenome, 24 h, 2 µM
[2] = human gut metagenome, 24 h, 2 µM; remark: listed apart in the source
[3] = (§1) The drug is tested on Z-026 corresponding to metagenome with ENA study accession number: PRJEB37062 and ENA sample accession number: ERS12561825 for biotransformation under anaerobic condition. The drug concentrations were measured over 9 timepoints collected between 0 and 24 hours of incubation by liquid-chromatography-coupled mass spectrometry (LC–MS); settings: 2 µM
[4] = human gut metagenome, 24 h, 2 µM; remark: listed apart in the source
[5] = as §1, with “Z-027” for “Z-026”, “ERS12561826” for “ERS12561825”; settings: 2 µM
[6] = (§2) The drug is tested on Z-009 corresponding to pig gut metagenome with ENA study accession number: PRJEB37062 and ENA sample accession number: ERS12561809 for biotransformation under anaerobic condition. The drug concentrations were measured over 9 timepoints collected between 0 and 24 hours of incubation by liquid-chromatography-coupled mass spectrometry (LC–MS); settings: 2 µM
[7] = as §2, with “Z-020” for “Z-009”, “rabbit” for “pig”, “ERS12561819” for “ERS12561809”; settings: 2 µM
[8] = human gut metagenome, 24 h, 2 µM; remark: listed apart in the source
[9] = human gut metagenome, 24 h, 2 µM; remark: listed apart in the source
Note: call rule not given here.

SMILES	Bacterial Biotransformation [1]	Bacterial Biotransformation [2]	Bacterial Biotransformation [3]	Bacterial Biotransformation [4]	Bacterial Biotransformation [5]	Bacterial Biotransformation [6]	Bacterial Biotransformation [7]	Bacterial Biotransformation [8]	Bacterial Biotransformation [9]
COc1cc(NC(C)CCCN)c2ncccc2c1.O=P(O)(O)O.O=P(O)(O)O (stereo unspecified) [PRIMAQUINE PHOSPHATE]	Compound NOT metabolized	Compound NOT metabolized	Compound NOT metabolized	Compound metabolized	Compound NOT metabolized	Compound NOT metabolized	Compound NOT metabolized	Compound NOT metabolized	Compound NOT metabolized
C=C[C@H]1CN2CC[C@H]1C[C@H]2[C@H](O)c1ccnc2ccc(OC)cc12.C=C[C@H]1CN2CC[C@H]1C[C@H]2[C@H](O)c1ccnc2ccc(OC)cc12.O.O.O=S(=O)(O)O [QUININE SULFATE]	Compound NOT metabolized	Compound metabolized	Compound NOT metabolized	Compound NOT metabolized	Compound NOT metabolized	Compound NOT metabolized	Compound NOT metabolized	Compound NOT metabolized	Compound NOT metabolized
O=C(NC(Cc1cc(=O)[nH]c2ccccc12)C(=O)O)c1ccc(Cl)cc1 (stereo unspecified) [REBAMIPIDE]	Compound NOT metabolized	Compound NOT metabolized	Compound NOT metabolized	Compound metabolized	Compound NOT metabolized	Compound NOT metabolized	Compound NOT metabolized	Compound NOT metabolized	Compound metabolized
CCOc1cc(CC(=O)N[C@@H](CC(C)C)c2ccccc2N2CCCCC2)ccc1C(=O)O [REPAGLINIDE]	Compound metabolized	Compound metabolized	Compound NOT metabolized	Compound metabolized	Compound metabolized	Compound metabolized	Compound metabolized	Compound NOT metabolized	Compound metabolized
CC(N)C12CC3CC(CC(C3)C1)C2 (stereo unspecified) [RIMANTADINE]	Compound NOT metabolized	Compound NOT metabolized	Compound NOT metabolized	Compound NOT metabolized	Compound NOT metabolized	Compound NOT metabolized	Compound NOT metabolized	Compound NOT metabolized	Compound NOT metabolized
CCN(C)C(=O)Oc1cccc([C@H](C)N(C)C)c1.O=C(O)C(O)C(O)C(=O)O [RIVASTIGMINE TARTRATE]	Compound NOT metabolized	Compound metabolized	Compound NOT metabolized	Compound metabolized	Compound NOT metabolized	Compound NOT metabolized	Compound NOT metabolized	Compound NOT metabolized	Compound NOT metabolized
CCCN(CCC)CCc1cccc2c1CC(=O)N2 [ROPINIROLE]	Compound metabolized	Compound NOT metabolized	Compound NOT metabolized	Compound NOT metabolized	Compound NOT metabolized	Compound NOT metabolized	Compound metabolized	Compound NOT metabolized	Compound NOT metabolized
CC(=O)OCC(=O)NCCCOc1cccc(CN2CCCCC2)c1 [ROXATIDINE ACETATE]	Compound metabolized	Compound metabolized	Compound metabolized	Compound metabolized	Compound metabolized	Compound metabolized	Compound metabolized	Compound NOT metabolized	Compound metabolized
CN[C@H]1CC[C@@H](c2ccc(Cl)c(Cl)c2)c2ccccc21 [SERTRALINE]	Compound metabolized	Compound NOT metabolized	Compound metabolized	Compound metabolized	Compound metabolized	Compound metabolized	Compound metabolized	Compound NOT metabolized	Compound metabolized
O=C(O)CCC(=O)O.O=C(O[C@H]1CN2CCC1CC2)N1CCc2ccccc2[C@@H]1c1ccccc1 [SOLIFENACIN SUCCINATE]	Compound NOT metabolized	Compound metabolized	Compound NOT metabolized	Compound NOT metabolized	Compound NOT metabolized	Compound metabolized	Compound metabolized	Compound NOT metabolized	Compound NOT metabolized
O=C(CCCN1CCC2(CC1)C(=O)NCN2c1ccccc1)c1ccc(F)cc1 [SPIPERONE]	Compound metabolized	Compound metabolized	Compound NOT metabolized	Compound metabolized	Compound NOT metabolized	Compound metabolized	Compound NOT metabolized	Compound NOT metabolized	Compound NOT metabolized
O=C1C(CC[S+]([O-])c2ccccc2)C(=O)N(c2ccccc2)N1c1ccccc1 (stereo unspecified) [SULFINPYRAZONE]	Compound metabolized	Compound metabolized	Compound metabolized	Compound metabolized	Compound NOT metabolized	Compound metabolized	Compound NOT metabolized	Compound metabolized	Compound metabolized
CCOc1ccccc1OCCN[C@H](C)Cc1ccc(OC)c(S(N)(=O)=O)c1.Cl [TAMSULOSIN HYDROCHLORIDE]	Compound metabolized	Compound NOT metabolized	Compound NOT metabolized	Compound metabolized	Compound NOT metabolized	Compound NOT metabolized	Compound NOT metabolized	Compound NOT metabolized	Compound NOT metabolized
COc1cc2nc(N3CCN(C(=O)C4CCCO4)CC3)nc(N)c2cc1OC (stereo unspecified) [TERAZOSIN]	Compound NOT metabolized	Compound metabolized	Compound NOT metabolized	Compound metabolized	Compound NOT metabolized	Compound metabolized	Compound NOT metabolized	Compound NOT metabolized	Compound NOT metabolized

— ChEMBL document CHEMBL5724914, “Linking interpersonal differences in gut microbiota composition and drug biotransformation activity” (2024)
